Experimental data published in article PMC6013238, “Development of novel NEMO-binding domain mimetics for inhibiting IKK/NF-κB activation” (PLoS Biology, 2018).
Values joined by “and” are separate entries in the source; they are usually repeats but may differ in a detail not shown here. Equal values may be shown once.

How the values were obtained:
NF-κB target genes = experiment: qRT-PCR of NF-κB target genes in LPS-stimulated Raw 264.7 cells; assay type: cell-based, mouse; details: LPS 1 μg/ml 2 h; for Effect on transcription of NF-κB target genes (COX-2, IL-6, IL-1β, TNF-α, IκBα, iNOS): 50 μM
[1] = tested on: p-IκBα (IKK kinase activity); experiment: Western blot of p-IκBα after TNF-α in HEK293 cells; assay type: cell-based, human; details: 100 μM, 30 min pretreatment, TNF-α 10 ng/ml 0, 5, 10 min
Procedure: To confirm that the NBD mimetics reduce IKK kinase activity, phosphorylation of IκBα by IKK in response to 10 ng/ml of TNF-α was measured by western blot at 0, 5, and 10 min after stimulation. […] To determine whether the mimetics also reduce NF-κB DNA binding activity, electrophoretic mobility shift assay (EMSA) was conducted both in vitro and in vivo. […] The addition of acetonitrile increased the stability of both ZINC compounds, especially ZINC 5 (Fig 3D).
Fig 3 Two identified small molecules reduce NF-κB DNA binding activity in vivo and in vitro. (A) Levels of p-IκBα with or without treatment in response to TNF-α were determined by western blot analysis. HEK293 cells were pretreated with DMSO, ZINC12909780 (100 μM), and ZINC5 (100 μM) for 30 min followed by the stimulation of 10 ng/ml of TNF-α for 0, 5, and 10 min. […]
Cell lysate was prepared in RIPA buffer (20 mM Tris-HCl [pH 7.5], 150 mM NaCl, 1 mM Na^2EDTA, 1 mM EGTA, 1% NP-40, 1% sodium deoxycholate, 2.5 mM sodium pyrophosphate, 1 mM beta-glycerophosphate, 1 mM Na3VO4, and 1 μg/ml leupeptin), supplemented with 1X protease inhibitor cocktails (MilliporeSigma, St. Louis, MO) and 1X Halt phosphatase inhibitor cocktail (ThermoFisher, Waltham, MA). Protein concentrations were determined by Lowry protein assays, and 30 μg of protein was resolved by MINI-PROTEAN TGX 4%–15% SDS-PAGE gels. […]

[2] = Fig 4C, IKKi VII 2 μM, 8K-NBD 200 μM, SR compounds 50 μM, relative to no LPS

SMILES: O=C(CNc1ccc(Cl)cn1)NCCc1cccc(Br)c1 [SR12343]
- COX2 mRNA expression (qRT-PCR) (NF-κB target genes; [2]): 201.141 and 209.385
- IL6 mRNA expression (qRT-PCR) (NF-κB target genes; [2]): 204.868 and 211.79
- IL-1b mRNA expression (qRT-PCR) (NF-κB target genes; [2]): 270.981 and 273.172
- TNFa mRNA expression (qRT-PCR) (NF-κB target genes; [2]): 84.4509 and 85.4634
- iNOS mRNA expression (qRT-PCR) (NF-κB target genes; [2]): 6.825 and 6.083
- ikBa mRNA expression (qRT-PCR) (NF-κB target genes; [2]): 15.399 and 14.5661
- Effect on transcription of NF-κB target genes (COX-2, IL-6, IL-1β, TNF-α, IκBα, iNOS) (NF-κB target genes): significant inhibition on COX-2, IL-6, and iNOS expression

SMILES: O=C(CNCCc1cc(F)cc(F)c1)Nc1ccc(Cl)cn1 [SR12460]
- COX2 mRNA expression (qRT-PCR) (NF-κB target genes; [2]): 38.9806 and 69.3201 and 44.3249
- IL-1b mRNA expression (qRT-PCR) (NF-κB target genes; [2]): 108.936
- iNOS mRNA expression (qRT-PCR) (NF-κB target genes; [2]): 2.289 and 2.778
- Effect on transcription of NF-κB target genes (COX-2, IL-6, IL-1β, TNF-α, IκBα, iNOS) (NF-κB target genes): significantly inhibit the transcription of all NF-κB target genes tested

SMILES: O=C(COC(=O)Cc1ccccc1F)Nc1ccc(Cl)cn1 [ZINC5]
- Level of p-IκBα following TNF-α stimulation [1]: reduced the level of p-IκBα

SMILES: Nc1ncccc1C(=O)OCC(=O)Nc1ccc(Cl)cc1F [ZINC12909780]
- Level of p-IκBα following TNF-α stimulation [1]: less robust reduction
